Test results reported in paper PMC6100582 (Molecules : A Journal of Synthetic Chemistry and Natural …, 2018).
≈ marks a conversion by molar mass, not a printed value. Where two headings read alike, the source gives them in different places.

Key:
[1] = system: Candida albicans ATCC 90028; experiment: In vitro antifungal susceptibility testing (MIC determination); format: cell-based; conditions: ATCC90028
Para-Influenza-3 Virus = experiment: organism not typed; format: cell-based
Reovirus-1 = experiment: Antiviral activity in Vero cell cultures; format: cell-based
Sindbis Virus = experiment: microbe, parasite or virus in culture; format: cell-based; conditions: Vero
Coxsackie Virus B4 = experiment: Antiviral activity in Vero cell cultures; format: cell-based; conditions: Enterovirus B
Punta Toro Virus = experiment: microbe, parasite or virus in culture; format: cell-based
Yellow Fever Virus = experiment: microbe, parasite or virus in culture; format: cell-based; conditions: Vero
Vero cell cultures = conditions: African green monkey
in vitro = conditions: African green monkey
[2] = system: Acinetobacter baumannii MFBF 10913; experiment: Minimum biofilm eradication assay; format: cell-based
Method: (§1) MBECs of fumardiamides 4a–f and succindiamides 5a–f were determined as follows. Each well (96-well plate) was filled with 100 µl of bacterial (10^7 CFU/mL) or yeast (5 × 10^6 CFU/mL) suspension. When the inhibition of yeast biofilm formation was tested, the wells were pre-treated with fetal bovine serum (FBS) (250 µl per well). Negative controls contained broth only. Positive controls were performed using standard antimicrobial drugs gentamycin (Gen) and Amph, respectively. […] Following incubation period, each well was aspirated, washed three times and vigorously shaken to remove all non-adherent bacteria/yeast. The remaining attached cells were fixed with methanol (15 min) and the plates were left to dry overnight. Formed biofilm was stained with crystal violet (1%, 5 min). Excess stain was rinsed by placing the plate under running tap water and the plates were left to dry. Adherent cells were solubilized using ethanol. The absorbance was read at 570 nm. The MBEC value represents the lowest dilution of a compound at which bacteria fail to grow.

[3] = system: Bacillus cereus ATCC 11778; experiment: Minimum biofilm eradication assay; format: cell-based
Method: as §1

[4] = system: Bacillus subtilis ATCC 6633; experiment: Minimum biofilm eradication assay; format: cell-based
Method: as §1

[5] = system: Enterococcus faecalis ATCC 29212; experiment: Minimum biofilm eradication assay; format: cell-based
Method: as §1

[6] = system: Escherichia coli ATCC 10536; experiment: Minimum biofilm eradication assay; format: cell-based
Method: as §1

[7] = system: Proteus mirabilis MFBF 10430; experiment: Minimum biofilm eradication assay; format: cell-based
Method: as §1

[8] = system: Pseudomonas aeruginosa ATCC 27853; experiment: Minimum biofilm eradication assay; format: cell-based
Method: as §1

[9] = system: Salmonella enteritidis MFBF 11945; experiment: Minimum biofilm eradication assay; format: cell-based
Method: as §1

[10] = system: Serratia marcescens ATCC 10905; experiment: Minimum biofilm eradication assay; format: cell-based
Method: as §1

[11] = system: Staphylococcus aureus ATCC 6538; experiment: Minimum biofilm eradication assay; format: cell-based
Method: as §1

[12] = system: Streptococcus pneumonia MFBF 10373; experiment: Minimum biofilm eradication assay; format: cell-based, Streptococcus pneumoniae
Method: as §1

[13] = system: Capan-1 (pancreatic adenocarcinoma); experiment: Antiproliferative screening (cytostatic activity); format: cell-based; conditions: Homo sapiens, CAPAN-1, 72 h, read-out: IC50 Capan-1
Method: (§2) All human tumor cell lines were acquired from the American Type Culture Collection (ATCC, Manassas, VA, USA), except for the DND-41 cell line which was purchased from the Deutsche Sammlung von Mikroorganismen und Zellkulturen (DSMZ Leibniz-Institut, Braunschweig, Germany) and the Hap1 cell line which was purchased from Horizon Discovery (Waterbeach, UK). […] All media were supplemented with 10% FBS (HyClone, GE Healthcare Life Sciences, USA). […] After overnight incubation, cells were treated with test compounds at four different concentrations ranging from 100 to 0.8 µM. […] Images were taken every 3 h, with one field image per well under 10× magnification. All compounds were tested with duplicate data points and averaged.

[14] = system: HCT-116 (colorectal carcinoma); experiment: Antiproliferative screening (cytostatic activity); format: cell-based; conditions: Homo sapiens, HCT-116, 72 h, read-out: IC50 HCT-116
Method: as §2

[15] = system: K-562 (chronic myeloid leukemia); experiment: Antiproliferative screening (cytostatic activity); format: cell-based; conditions: Homo sapiens, K562, 72 h, read-out: IC50 K-562
Method: as §2

MM.1S (multiple myeloma) = experiment: Antiproliferative screening (cytostatic activity); format: cell-based; conditions: Homo sapiens, MM1.S, 72 h, read-out: IC50 MM.1S
Method: as §2

[16] = system: NCI-H460 (lung carcinoma); experiment: Antiproliferative screening (cytostatic activity); format: cell-based; conditions: Homo sapiens, NCI-H460, 72 h, read-out: IC50 NCI-H460
Method: as §2

[17] = system: Z-138 (non-Hodgkin lymphoma); experiment: Antiproliferative screening (cytostatic activity); format: cell-based; conditions: Homo sapiens, Z-138, 72 h, read-out: IC50 Z-138
Method: as §2

[18] = system: HL-60 (acute myeloid leukemia); experiment: Antiproliferative screening (cytostatic activity); format: cell-based; conditions: Homo sapiens, HL-60, 72 h, read-out: IC50 HL-60
Method: (§3) Cytostatic activity was evaluated in vitro on nine different types of human tumor cell lines: Capan-1, Hap1, HCT-116, and NCI-H460, as well as hematological tumors such as DND-41, HL-60, K-562, MM.1S and Z-138 as described previously. All human tumor cell lines were acquired from the American Type Culture Collection (ATCC, Manassas, VA, USA), except for the DND-41 cell line which was purchased from the Deutsche Sammlung von Mikroorganismen und Zellkulturen (DSMZ Leibniz-Institut, Braunschweig, Germany) and the Hap1 cell line which was purchased from Horizon Discovery (Waterbeach, UK). Capan-1, Hap1, HL-60, K-562, Z-138, MM.1S and DND-41 were cultured in Iscove′s Modified Dulbecco′s Medium (IMDM, Gibco Life Technologies, Gaithersburg, MD, USA), HCT-116 were grown in McCoy′s 5A Medium (Gibco Life Technologies) and NCI-H460 were cultured in RPMI (Gibco Life Technologies). All media were supplemented with 10% FBS (HyClone, GE Healthcare Life Sciences, USA). Adherent cell lines HCT-116, Hap1, NCI-H460, and Capan-1 cells were seeded at a density between 400 and 1250 cells per well, in 384-well, black-walled, clear-bottomed tissue culture plates (Greiner Bio-One, Kremsmünster, Germany). After overnight incubation, cells were treated with test compounds at four different concentrations ranging from 100 to 0.8 µM. Suspension cell lines HL-60, K-562, Z-138, MM.1S, and DND-41 were seeded at densities ranging from 3000 to 10,000 cells per well in 384-well, black-walled, clear-bottomed tissue culture plates containing test compounds at the same four concentrations. The plates were incubated and monitored at 37 °C for 72 h in an IncuCyte (Essen BioScience Inc., Ann Arbor, MI, USA) for real-time imaging. Images were taken every 3 h, with one field image per well under 10× magnification. All compounds were tested with duplicate data points and averaged. […]

[19] = system: Hap1 (chronic myeloid leukemia); experiment: Antiproliferative screening (cytostatic activity); format: cell-based; conditions: Homo sapiens, HAP1, 72 h, read-out: IC50 Hap1
Method: as §3

[20] = system: DND-41 (acute lymphoblastic leukemia); experiment: Antiproliferative screening (cytostatic activity); format: cell-based, human; conditions: Homo sapiens, DND41, 72 h, read-out: IC50 DND-41
Method: as §3

[21] = system: Staphylococcus aureus ATCC 6538; experiment: Antimicrobial susceptibility assay in vitro (MIC determination); format: cell-based; conditions: ATCC6538
[22] = system: Acinetobacter baumannii MFBF 10913; experiment: as above; format: cell-based; conditions: MFBF10913, serial microdilution, 18 h, 35 °C
Method: (§4) Stock solutions of the tested compounds were prepared in DMSO (10 mg/mL). […] The absorbance was recorded at 540 nm. As a positive quality control (susceptibility of strains) tetracycline hydrochloride (TC) (Sigma-Aldrich) was added into wells.

[23] = system: Bacillus cereus ATCC 11778; experiment: as above; format: cell-based; conditions: ATCC11778, serial microdilution, 18 h, 35 °C
Method: as §4

[24] = system: Bacillus subtilis ATCC 6633; experiment: as above; format: cell-based; conditions: ATCC6633, serial microdilution, 18 h, 35 °C
Method: as §4

[25] = system: Streptococcus pneumoniae MFBF 10373; experiment: as above; format: cell-based; conditions: MFBF10373, serial microdilution, 18 h, 35 °C
Method: as §4

[26] = Vero cells, MTS, read-out: EC50 Para-Influenza-3 Virus, MTS
[27] = Vero cells, MTS, read-out: EC50 Reovirus-1, MTS
[28] = Vero cells, visual CPE score, read-out: EC50 Reovirus-1, Visual CPE Score
[29] = read-out: EC50 Sindbis Virus, MTS
[30] = read-out: EC50 Sindbis Virus, Visual CPE Score
[31] = B4, Vero cells, MTS, read-out: EC50 Coxsackie Virus B4, MTS
[32] = B4, Vero cells, visual CPE score, read-out: EC50 Coxsackie Virus B4, Visual CPE Score
[33] = Vero cells, MTS, read-out: EC50 Punta Toro Virus, MTS
[34] = read-out: EC50 Yellow Fever Virus, MTS
[35] = read-out: EC50 Yellow Fever Virus, Visual CPE Score

`C[C@@H]1[C@H](O)[C@@H](C)/C=C/C=C/C=C/C=C/C=C/C=C/C=C/[C@H](O[C@@H]2O[C@H](C)[C@@H](O)[C@H](N)[C@@H]2O)C[C@@H]2O[C@](O)(C[C@@H](O)C[C@@H](O)[C@H](O)CC[C@@H](O)C[C@@H](O)CC(=O)O[C@H]1C)C[C@H](O)[C@H]2C(=O)O` [Amph, amphotericin B, reference compound] gave an MIC [1] of 0.5 µg/mL (≈ 0.541 µM).

Work on `COc1c(C)c2c(c(O)c1C/C=C(\C)CCC(=O)O)C(=O)OC2` [MPA, mycophenolic acid, reference compound] yielded an EC50 (Para-Influenza-3 Virus; [26]) of 1 µM, an EC50 (Reovirus-1; [27]) of 0.6 µM and an EC50 (Reovirus-1; [28]) of 0.8 µM. The EC50 (Sindbis Virus; [29]) was 12 µM, the EC50 (Sindbis Virus; [30]) was 1.7 µM and the EC50 (Coxsackie Virus B4; [31]) was greater than 100 µM. For the same compound, the EC50 (Coxsackie Virus B4; [32]) was greater than 100 µM, the EC50 (Punta Toro Virus; [33]) was 11 µM and the EC50 (Punta Toro Virus; Vero cells, visual CPE score, read-out: EC50 Punta Toro Virus, Visual CPE Score) was 8.9 µM. The EC50 (Yellow Fever Virus; [34]) was 0.5 µM, the EC50 (Yellow Fever Virus; [35]) was 0.8 µM and the “Cytotoxicity MCC (minimum cytotoxic concentration)” value (Vero cell cultures) was greater than 100. The CC50 (in vitro) was greater than 100 µg/mL.

Compound `COc1cc(NC(C)CCCN)c2ncccc2c1` (stereo not shown) [PQ, primaquine, reference compound] has an MBEC [2] of 50 µg/mL, an MBEC [3] of 70 µg/mL and an MBEC [4] of 80 µg/mL. It also gave an MBEC [5] greater than 100 µg/mL, an MBEC [6] of 65 µg/mL and an MBEC [7] greater than 100 µg/mL. It also gave an MBEC [8] of 65 µg/mL, an MBEC [9] of 70 µg/mL and an MBEC [10] greater than 100 µg/mL. For the same compound, the MBEC [11] was 50 µg/mL, the MBEC [12] was 70 µg/mL and the EC50 (Para-Influenza-3 Virus; [26]) was greater than 50 µM. For the same compound, the EC50 (Reovirus-1; Vero, read-out: EC50 Reovirus-1, MTS) was greater than 50 µM, the EC50 (Sindbis Virus; [29]) was greater than 50 µM and the EC50 (Coxsackie Virus B4; B4, Vero, read-out: EC50 Coxsackie Virus B4, MTS) was greater than 50 µM. For the same compound, the EC50 (Punta Toro Virus; [33]) was greater than 50 µM, the EC50 (Yellow Fever Virus; [34]) was greater than 50 µM and the IC50 [13] was 18.7 µM. The IC50 [14] was 30.9 µM, the IC50 [15] was 35.2 µM and the IC50 (MM.1S (multiple myeloma)) was 28.3 µM. For the same compound, the IC50 [16] was 52.6 µM, the IC50 [17] was 7.1 µM and the IC50 [18] was 2.2 µM. The IC50 [19] was 42.7 µM and the IC50 [20] was 11.4 µM.

In the case of `NC(=O)c1ncn([C@@H]2O[C@H](CO)[C@@H](O)[C@H]2O)n1` [RIB, ribavirin, reference compound], the EC50 (Para-Influenza-3 Virus; Vero, read-out: EC50 Para-Influenza-3 Virus, MTS) is reported as 73 µM, the EC50 (Para-Influenza-3 Virus; Vero, read-out: EC50 Para-Influenza-3 Virus, Visual CPE Score) is reported as 111 µM and the EC50 (Reovirus-1; [27]) is reported as 107 µM. The EC50 (Reovirus-1; [28]) was 126 µM, the EC50 (Sindbis Virus; [29]) was greater than 250 µM and the EC50 (Sindbis Virus; [30]) was 11 µM. For the same compound, the EC50 (Coxsackie Virus B4; [31]) was greater than 250 µM, the EC50 (Coxsackie Virus B4; [32]) was greater than 250 µM and the EC50 (Punta Toro Virus; Vero, read-out: EC50 Punta Toro Virus, MTS) was 85 µM. The EC50 (Punta Toro Virus; Vero, read-out: EC50 Punta Toro Virus, Visual CPE Score) was 111 µM, the EC50 (Yellow Fever Virus; [34]) was 119 µM and the EC50 (Yellow Fever Virus; [35]) was greater than 250 µM. For the same compound, the CC50 (in vitro) was greater than 250 µg/mL.

`CN(C)[C@@H]1C(O)=C(C(N)=O)C(=O)[C@@]2(O)C(O)=C3C(=O)c4c(O)cccc4[C@@](C)(O)[C@H]3C[C@@H]12` [TC, tetracycline, reference compound] showed an MIC [21] of 0.3 µg/mL (≈ 0.675 µM), an MIC [22] of 3 µg/mL (≈ 6.75 µM) and an MIC [23] of 0.3 µg/mL (≈ 0.675 µM). The MIC [24] was 0.3 µg/mL (≈ 0.675 µM) and the MIC [25] was 0.3 µg/mL (≈ 0.675 µM).
